Here are results for 9 compounds from US20230017045A1, “PYRIDINE AND PYRIMIDINE CARBOXYLATE HERBICIDES AND METHODS OF USE THEREOF” (Dow AgroSciences LLC, priority 2017, published 2023).

SMILES strings stand for the structures. Read-outs that look alike come from different tables or passages of the source.

The assay has as its system test plant species. Nature of the assay: Post-emergent herbicidal activity test (greenhouse, foliar spray, visual growth reduction). The class given is in vivo. The following applies: post-emergence, 336 h, 140 g ai/ha. In outline:
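Visual scoring 14 d after treatment (0 = no injury, 100 = complete control) against nontreated and solvent-blank plants gave percent growth reduction. Foliar application used a track sprayer delivering 187 L/ha to seedlings at first or second true leaf stage, grown at 23–29 °C day, ~15 h photoperiod.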

Setting [1] is: ECHCG: barnyardgrass (Echinochloa crus-galli), 14 days after application, read-out: Visual Growth Reduction (%) 14 Days After Application, ECHCG.
Setting [2] is: IPOHE: ivy-leaf morning glory (Ipomoea hederacea), 14 days after application, read-out: Visual Growth Reduction (%) 14 Days After Application, IPOHE.
The mark [3] stands for this setting: KCHSC: kochia (Bassia scoparia), 14 days after application, read-out: Visual Growth Reduction (%) 14 Days After Application, KCHSC.
Setting [4] is: ORYSA: rice (Oryza sativa), 14 days after application, read-out: Visual Growth Reduction (%) 14 Days After Application, ORYSA.
The mark [5] stands for this setting: SETFA: giant foxtail (Setaria faberi), 14 days after application, read-out: Visual Growth Reduction (%) 14 Days After Application, SETFA.
Setting [6] is: SORVU: grain sorghum (Sorghum vulgare), 14 days after application, read-out: Visual Growth Reduction (%) 14 Days After Application, SORVU.
Setting [7] is: STEME: common chickweed (Stellaria media), 14 days after application, read-out: Visual Growth Reduction (%) 14 Days After Application, STEME.
The mark [8] stands for this setting: TRZAS: wheat, spring (Triticum aestivum), 14 days after application, read-out: Visual Growth Reduction (%) 14 Days After Application, TRZAS.
The mark [9] stands for this setting: blackgrass (Alopecurus myosuroides), 14 Days After Application, read-out: Visual Growth Reduction (%) ALOMY.
Setting [10] is: canada thistle (Cirsium arvense), 14 Days After Application, read-out: Visual Growth Reduction (%) CIRAR.
[11] abbreviates: crabgrass (Digitaria sanguinalis), 14 Days After Application, read-out: Visual Growth Reduction (%) DIGSA.
Setting [12] is: lambsquarters (Chenopodium album), 14 Days After Application, read-out: Visual Growth Reduction (%) CHEAL.
[13] abbreviates: redroot pigweed (Amaranthus retroflexus), 14 Days After Application, read-out: Visual Growth Reduction (%) AMARE.
Where [14] appears, read: wild oat (Avena fatua), 14 Days After Application, read-out: Visual Growth Reduction (%) AVEFA.
The mark [15] stands for this setting: yellow nutsedge (Cyperus esculentus), 14 Days After Application, read-out: Visual Growth Reduction (%) CYPES.

As to `CCOc1cc(C(F)(F)F)ccc1-c1nc(C(=O)OC)c(Cl)cc1F` [F311, Methyl 3-chloro-6-(2-ethoxy-4-(trifluoromethyl)phenyl)-5-fluoropicolinate], the pest or weed control at 140 g/ha lay within 0 to 29% under setting [1]; 95 to 100% under setting [2]; 0 to 29% under setting [3]; 0 to 29% under setting [4]; 0 to 29% under setting [5]; 75 to 84% under setting [6]. Moreover, the pest or weed control at 140 g/ha runs as follows: under setting [7], 0 to 29%; under setting [8], 0 to 29%; under setting [9], 0 to 29%; under setting [10], 0 to 29%; under setting [11], 0 to 29%; under setting [12], 30 to 44%. The pest or weed control at 140 g/ha under setting [13] is 0 to 29%, the pest or weed control at 140 g/ha under setting [14] is 0 to 29% and the pest or weed control at 140 g/ha under setting [15] lay in the range of 0 to 29%.

For the compound `COC(=O)c1nc(-c2ccc(C(F)(F)F)cc2F)ncc1Cl` [F312, Methyl 5-chloro-2-(2-fluoro-4-(trifluoromethyl)phenyl) pyrimidine-4-carboxylate], the pest or weed control at 140 g/ha runs as follows: under setting [1], 75 to 84%; under setting [2], 95 to 100%; under setting [3], 0 to 29%; under setting [4], 0 to 29%; under setting [5], 60 to 74%; under setting [6], 85 to 94%. Moreover, the pest or weed control at 140 g/ha under setting [7] lay within 0 to 29%; the pest or weed control at 140 g/ha under setting [8] is 30 to 44%; the pest or weed control at 140 g/ha under setting [9] was in the range of 0 to 29%; the pest or weed control at 140 g/ha under setting [10] fell in the range of 85 to 94%; the pest or weed control at 140 g/ha under setting [11] lay within 85 to 94%; the pest or weed control at 140 g/ha under setting [12] was in the range of 85 to 94%. The pest or weed control at 140 g/ha was in the range of 85 to 94% under setting [13], 0 to 29% under setting [14] and 45 to 59% under setting [15].

As to `COC(=O)c1nc(-c2ccc(C(F)(F)F)cc2OC)ncc1Cl` [F313, methyl 5-chloro-2-(2-methoxy-4-(trifluoromethyl)phenyl)pyrimidine-4-carboxylate], the pest or weed control at 140 g/ha is, setting by setting: under setting [1], 60 to 74%; under setting [2], 95 to 100%; under setting [3], 0 to 29%; under setting [4], 0 to 29%; under setting [5], 60 to 74%; under setting [6], 85 to 94%. In addition, the pest or weed control at 140 g/ha lay in the range of 0 to 29% under setting [7]; 0 to 29% under setting [8]; 0 to 29% under setting [9]; 45 to 59% under setting [10]; 75 to 84% under setting [11]; 30 to 44% under setting [12]. Also, the pest or weed control at 140 g/ha under setting [13] lay within 45 to 59%, the pest or weed control at 140 g/ha under setting [14] is 0 to 29% and the pest or weed control at 140 g/ha under setting [15] lay within 0 to 29%.

With `O=C(O)c1nc(-c2ccc(C(F)(F)F)c(Cl)c2)ccc1Cl` [F314, 3-Chloro-6-(3-chloro-4-(trifluoromethyl)phenyl) picolinic acid], the pest or weed control at 140 g/ha lay in the range of 0 to 29% under setting [1]; 95 to 100% under setting [2]; 0 to 29% under setting [3]; 0 to 29% under setting [4]; 0 to 29% under setting [5]; 75 to 84% under setting [6]. In addition, the pest or weed control at 140 g/ha under setting [7] is 0 to 29%; the pest or weed control at 140 g/ha under setting [8] is 0 to 29%; the pest or weed control at 140 g/ha under setting [9] fell in the range of 0 to 29%; the pest or weed control at 140 g/ha under setting [10] was 45 to 59%; the pest or weed control at 140 g/ha under setting [11] was 75 to 84%; the pest or weed control at 140 g/ha under setting [12] was 30 to 44%. Also, the pest or weed control at 140 g/ha is, setting by setting: under setting [13], 0 to 29%; under setting [14], 0 to 29%; under setting [15], 0 to 29%.

Regarding `O=C(O)c1nc(-c2ccc(C(F)(F)F)c(F)c2)ccc1Cl` [F315, 3-Chloro-6-(3-fluoro-4-(trifluoromethyl)phenyl) picolinic acid], the pest or weed control at 140 g/ha was 0 to 29% under setting [1]; 95 to 100% under setting [2]; 0 to 29% under setting [3]; 0 to 29% under setting [4]; 60 to 74% under setting [5]; 85 to 94% under setting [6]. Moreover, the pest or weed control at 140 g/ha was 0 to 29% under setting [7]; 60 to 74% under setting [8]; 0 to 29% under setting [9]; 60 to 74% under setting [10]; 75 to 84% under setting [11]; 60 to 74% under setting [12]. Also, the pest or weed control at 140 g/ha is, setting by setting: under setting [13], 60 to 74%; under setting [14], 0 to 29%; under setting [15], 60 to 74%.

Consider `Cc1cc(-c2ccc(Cl)c(C(=O)O)n2)ccc1C(F)(F)F` [F316, 3-Chloro-6-(3-methyl-4-(trifluoromethyl)phenyl) picolinic acid], for which the pest or weed control at 140 g/ha reads like this: under setting [1], 0 to 29%; under setting [2], 60 to 74%; under setting [3], 0 to 29%; under setting [4], 0 to 29%; under setting [5], 0 to 29%; under setting [6], 0 to 29%. Besides, the pest or weed control at 140 g/ha under setting [7] was in the range of 0 to 29%; the pest or weed control at 140 g/ha under setting [8] is 0 to 29%; the pest or weed control at 140 g/ha under setting [9] was 0 to 29%; the pest or weed control at 140 g/ha under setting [10] fell in the range of 30 to 44%; the pest or weed control at 140 g/ha under setting [11] fell in the range of 0 to 29%; the pest or weed control at 140 g/ha under setting [12] fell in the range of 30 to 44%. Further, the pest or weed control at 140 g/ha under setting [13] is 0 to 29%, the pest or weed control at 140 g/ha under setting [14] was in the range of 0 to 29% and the pest or weed control at 140 g/ha under setting [15] is 0 to 29%.

Take `COc1cc(-c2ccc(Cl)c(C(=O)O)n2)ccc1C(F)(F)F` [F317, 3-Chloro-6-(3-methoxy-4-(trifluoromethyl)phenyl)picolinic acid]: the pest or weed control at 140 g/ha under setting [1] was in the range of 0 to 29%; the pest or weed control at 140 g/ha under setting [2] lay within 60 to 74%; the pest or weed control at 140 g/ha under setting [3] fell in the range of 0 to 29%; the pest or weed control at 140 g/ha under setting [4] lay in the range of 0 to 29%; the pest or weed control at 140 g/ha under setting [5] was in the range of 0 to 29%; the pest or weed control at 140 g/ha under setting [6] lay in the range of 0 to 29%. For the same compound, the pest or weed control at 140 g/ha lay in the range of 0 to 29% under setting [7]; 0 to 29% under setting [8]; 0 to 29% under setting [9]; 0 to 29% under setting [10]; 0 to 29% under setting [11]; 0 to 29% under setting [12]. Also, the pest or weed control at 140 g/ha was in the range of 0 to 29% under setting [13], 0 to 29% under setting [14] and 0 to 29% under setting [15].

Consider `COC(=O)c1nc(-c2cc3nonc3cc2F)c(F)cc1Cl` [F318, Methyl 3-chloro-5-fluoro-6-(6-fluorobenzo[c][1,2,5]oxadiazol-5-yl)picolinate], for which the pest or weed control at 140 g/ha reads like this: under setting [1], 85 to 94%; under setting [2], 95 to 100%; under setting [3], 0 to 29%; under setting [4], 0 to 29%; under setting [5], 75 to 84%; under setting [6], 85 to 94%. Further, the pest or weed control at 140 g/ha fell in the range of 0 to 29% under setting [7]; 0 to 29% under setting [8]; 0 to 29% under setting [9]; 0 to 29% under setting [10]; 85 to 94% under setting [11]; 60 to 74% under setting [12]. The pest or weed control at 140 g/ha is, setting by setting: under setting [13], 60 to 74%; under setting [14], 0 to 29%; under setting [15], 0 to 29%.

`COC(=O)c1nc(-c2ccc(C(F)F)cc2)ncc1Cl` [F319, Methyl 5-chloro-2-(4-(difluoromethyl)phenyl)pyrimidine-4-carboxylate]: the pest or weed control at 140 g/ha by setting is: under setting [1], 0 to 29%; under setting [2], 30 to 44%; under setting [3], 0 to 29%; under setting [4], 0 to 29%; under setting [5], 0 to 29%; under setting [6], 0 to 29%. Further, the pest or weed control at 140 g/ha lay within 0 to 29% under setting [7]; 0 to 29% under setting [8]; 0 to 29% under setting [9]; 0 to 29% under setting [10]; 0 to 29% under setting [11]; 30 to 44% under setting [12]. Further, the pest or weed control at 140 g/ha reads like this: under setting [13], 0 to 29%; under setting [14], 0 to 29%; under setting [15], 0 to 29%.
